Values of other authors, collected in patent publication US7504230B2, “Method of identifying a useful set of signal transduction proteins from a multiplicity of potentially useful proteins” (Trelolis Bioscience, Inc., priority 1999, dated 2009).

Assays:
[1] = biological target: T1, PKC isoenzyme α (Homo sapiens, UniProt P17252); conditions: hDMEC, after stimulation with PMA; from cytosol
T1 construct: endogenous in cells; host or cells: hDMEC (human dermal microvascular endothelial cells)

[2] = biological target: T2, PKC isoenzyme β (Homo sapiens, UniProt P05771); conditions: hDMEC, after stimulation with PMA; from cytosol (ditto mark)
T2 construct: endogenous in cells; host or cells: hDMEC (human dermal microvascular endothelial cells)
T2 sequence (P05771 whole entry): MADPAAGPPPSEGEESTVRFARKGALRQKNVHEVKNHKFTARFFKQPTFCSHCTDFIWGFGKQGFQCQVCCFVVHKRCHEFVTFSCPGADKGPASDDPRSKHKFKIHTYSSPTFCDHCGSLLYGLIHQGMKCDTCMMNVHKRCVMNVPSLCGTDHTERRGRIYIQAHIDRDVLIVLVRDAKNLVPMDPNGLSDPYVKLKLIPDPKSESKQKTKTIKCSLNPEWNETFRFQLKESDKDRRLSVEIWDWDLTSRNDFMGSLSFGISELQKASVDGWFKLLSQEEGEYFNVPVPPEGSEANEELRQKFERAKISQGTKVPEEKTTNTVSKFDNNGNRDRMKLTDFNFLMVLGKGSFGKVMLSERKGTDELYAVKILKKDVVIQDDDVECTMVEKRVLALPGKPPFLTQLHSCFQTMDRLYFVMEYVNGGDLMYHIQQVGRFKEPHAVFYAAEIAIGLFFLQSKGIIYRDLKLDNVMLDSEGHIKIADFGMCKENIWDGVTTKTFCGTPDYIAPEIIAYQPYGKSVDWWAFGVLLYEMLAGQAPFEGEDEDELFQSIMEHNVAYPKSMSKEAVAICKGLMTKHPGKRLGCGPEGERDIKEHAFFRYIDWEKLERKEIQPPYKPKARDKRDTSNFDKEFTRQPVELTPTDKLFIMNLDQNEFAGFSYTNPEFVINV

[3] = biological target: T3, PKC isoenzyme βII (Homo sapiens, UniProt P05771); conditions: hDMEC, after stimulation with PMA; from nucleus
T3 construct: endogenous in cells; host or cells: hDMEC (human dermal microvascular endothelial cells)
T3 sequence (P05771 1-673 isoform P05771-2): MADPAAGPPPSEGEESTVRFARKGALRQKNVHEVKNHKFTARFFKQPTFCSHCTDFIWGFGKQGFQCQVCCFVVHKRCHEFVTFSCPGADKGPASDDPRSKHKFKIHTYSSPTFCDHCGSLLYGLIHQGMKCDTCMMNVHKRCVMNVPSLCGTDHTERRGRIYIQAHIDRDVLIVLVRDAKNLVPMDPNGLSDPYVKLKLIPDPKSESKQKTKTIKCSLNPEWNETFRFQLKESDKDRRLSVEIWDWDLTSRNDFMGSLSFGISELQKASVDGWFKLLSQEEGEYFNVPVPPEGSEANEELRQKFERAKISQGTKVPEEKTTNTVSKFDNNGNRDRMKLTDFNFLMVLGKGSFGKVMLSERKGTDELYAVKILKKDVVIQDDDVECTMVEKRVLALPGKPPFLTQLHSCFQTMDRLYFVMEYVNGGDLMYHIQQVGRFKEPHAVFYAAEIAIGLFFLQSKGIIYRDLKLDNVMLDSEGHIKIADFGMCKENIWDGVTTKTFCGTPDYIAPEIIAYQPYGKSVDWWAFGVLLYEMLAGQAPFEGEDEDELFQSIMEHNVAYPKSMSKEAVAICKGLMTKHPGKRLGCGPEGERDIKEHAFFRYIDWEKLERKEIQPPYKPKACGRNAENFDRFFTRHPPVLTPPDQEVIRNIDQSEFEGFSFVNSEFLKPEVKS

[4] = biological target: T4, PKC isoenzyme δ (Homo sapiens, UniProt Q05655); conditions: hDMEC, after stimulation with PMA; from cytosol
T4 construct: endogenous in cells; host or cells: hDMEC (human dermal microvascular endothelial cells)
T4 sequence (Q05655 whole entry): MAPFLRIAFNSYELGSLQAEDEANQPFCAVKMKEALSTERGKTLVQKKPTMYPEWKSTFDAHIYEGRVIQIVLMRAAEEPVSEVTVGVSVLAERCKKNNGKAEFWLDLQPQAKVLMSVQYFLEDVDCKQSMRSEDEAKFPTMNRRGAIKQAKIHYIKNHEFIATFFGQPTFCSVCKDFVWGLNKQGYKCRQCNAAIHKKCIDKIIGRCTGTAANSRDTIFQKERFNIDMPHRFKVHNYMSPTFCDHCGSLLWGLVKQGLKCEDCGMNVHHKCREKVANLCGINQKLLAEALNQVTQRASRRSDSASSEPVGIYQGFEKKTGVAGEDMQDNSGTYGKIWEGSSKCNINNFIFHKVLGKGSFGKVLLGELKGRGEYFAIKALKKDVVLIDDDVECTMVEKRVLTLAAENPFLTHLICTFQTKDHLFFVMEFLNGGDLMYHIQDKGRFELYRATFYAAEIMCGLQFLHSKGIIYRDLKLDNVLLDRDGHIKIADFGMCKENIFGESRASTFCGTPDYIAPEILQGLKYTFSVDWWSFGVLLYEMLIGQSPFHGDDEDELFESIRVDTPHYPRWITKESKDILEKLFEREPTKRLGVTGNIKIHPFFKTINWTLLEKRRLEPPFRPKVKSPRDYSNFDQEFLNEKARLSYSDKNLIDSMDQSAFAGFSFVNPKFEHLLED

[5] = biological target: T5, PKC isoenzyme ε (Homo sapiens, UniProt Q02156); conditions: hDMEC, after stimulation with PMA; from periphery
T5 construct: endogenous in cells; host or cells: hDMEC (human dermal microvascular endothelial cells)
T5 sequence (Q02156 1-737): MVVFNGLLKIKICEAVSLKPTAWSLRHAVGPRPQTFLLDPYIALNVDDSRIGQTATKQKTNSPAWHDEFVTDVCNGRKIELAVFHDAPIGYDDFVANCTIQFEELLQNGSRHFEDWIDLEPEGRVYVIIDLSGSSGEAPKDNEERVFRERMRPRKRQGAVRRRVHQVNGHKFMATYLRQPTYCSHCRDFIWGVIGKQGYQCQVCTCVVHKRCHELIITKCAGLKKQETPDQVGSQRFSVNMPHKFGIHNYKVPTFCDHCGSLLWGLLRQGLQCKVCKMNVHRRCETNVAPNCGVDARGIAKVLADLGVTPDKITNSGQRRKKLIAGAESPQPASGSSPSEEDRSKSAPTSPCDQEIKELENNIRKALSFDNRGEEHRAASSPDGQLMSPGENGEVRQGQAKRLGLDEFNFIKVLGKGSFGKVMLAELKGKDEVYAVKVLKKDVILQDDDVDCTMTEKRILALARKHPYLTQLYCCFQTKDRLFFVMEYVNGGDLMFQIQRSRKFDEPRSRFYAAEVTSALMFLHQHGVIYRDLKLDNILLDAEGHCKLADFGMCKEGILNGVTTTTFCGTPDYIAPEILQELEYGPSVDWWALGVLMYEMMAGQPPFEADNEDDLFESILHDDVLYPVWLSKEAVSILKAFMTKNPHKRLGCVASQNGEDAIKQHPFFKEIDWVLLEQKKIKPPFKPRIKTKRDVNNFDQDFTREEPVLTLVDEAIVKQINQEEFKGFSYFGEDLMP

[6] = biological target: T6, PKC isoenzyme ζ (Homo sapiens, UniProt Q05513); conditions: hDMEC, after stimulation with PMA; from fibrillar structures
T6 construct: endogenous in cells; host or cells: hDMEC (human dermal microvascular endothelial cells)
T6 sequence (Q05513 1-592): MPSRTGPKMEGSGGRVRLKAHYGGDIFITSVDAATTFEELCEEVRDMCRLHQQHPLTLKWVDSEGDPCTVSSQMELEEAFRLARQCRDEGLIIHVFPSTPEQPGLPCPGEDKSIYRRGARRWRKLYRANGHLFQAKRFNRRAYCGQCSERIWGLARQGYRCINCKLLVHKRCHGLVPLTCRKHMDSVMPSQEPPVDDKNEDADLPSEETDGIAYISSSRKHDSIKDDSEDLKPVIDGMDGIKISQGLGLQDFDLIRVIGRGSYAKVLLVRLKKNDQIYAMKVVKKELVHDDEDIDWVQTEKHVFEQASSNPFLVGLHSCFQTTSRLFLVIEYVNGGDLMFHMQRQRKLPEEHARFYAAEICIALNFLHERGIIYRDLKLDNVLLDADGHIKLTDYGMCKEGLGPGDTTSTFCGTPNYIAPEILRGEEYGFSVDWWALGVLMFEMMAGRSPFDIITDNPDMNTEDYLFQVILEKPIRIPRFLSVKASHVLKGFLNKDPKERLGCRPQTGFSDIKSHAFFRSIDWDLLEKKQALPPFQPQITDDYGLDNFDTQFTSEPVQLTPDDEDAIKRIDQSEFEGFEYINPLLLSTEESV

[7] = biological target: T7, PKC isoenzyme η (Homo sapiens, UniProt P24723); conditions: hDMEC, after stimulation with PMA; from nucleus
T7 construct: endogenous in cells; host or cells: hDMEC (human dermal microvascular endothelial cells)
T7 sequence (P24723 whole entry): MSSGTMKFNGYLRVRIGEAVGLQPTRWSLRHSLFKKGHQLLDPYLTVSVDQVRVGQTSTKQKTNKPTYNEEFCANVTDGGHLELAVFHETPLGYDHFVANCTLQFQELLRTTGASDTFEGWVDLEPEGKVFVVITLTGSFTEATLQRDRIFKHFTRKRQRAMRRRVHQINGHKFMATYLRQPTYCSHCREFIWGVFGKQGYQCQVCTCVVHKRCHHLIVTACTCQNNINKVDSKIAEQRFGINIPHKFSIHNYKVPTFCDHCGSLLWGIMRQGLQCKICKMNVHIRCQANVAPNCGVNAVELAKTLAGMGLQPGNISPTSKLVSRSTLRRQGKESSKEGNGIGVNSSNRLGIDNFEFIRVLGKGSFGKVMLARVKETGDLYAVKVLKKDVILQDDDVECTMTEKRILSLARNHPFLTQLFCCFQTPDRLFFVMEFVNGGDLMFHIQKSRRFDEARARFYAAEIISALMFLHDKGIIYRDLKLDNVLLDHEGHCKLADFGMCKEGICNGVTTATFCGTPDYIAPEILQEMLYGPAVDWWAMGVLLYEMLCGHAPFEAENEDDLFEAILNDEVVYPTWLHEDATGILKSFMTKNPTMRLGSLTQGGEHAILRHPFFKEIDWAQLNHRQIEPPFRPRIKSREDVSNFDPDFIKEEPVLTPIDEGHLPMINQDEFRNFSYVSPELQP

[8] = tested on: fusion of the C1 region with green fluorescent protein (GFP); conditions: from a diffuse cytoplasmic localization

In the case of `CCCCCCCCCCCCCC(=O)O[C@@H]1[C@@H](C)[C@@]2(O)[C@@H](C=C(CO)C[C@]3(O)C(=O)C(C)=C[C@@H]23)[C@@H]2C(C)(C)[C@]12OC(C)=O` [PMA, phorbol myristic acetate], the “Localization after stimulation (To)” value [1] is given as “perinuclear membrane”, the “Localization after stimulation (To)” value [2] is given as “nucleus” and the “Localization after stimulation (To)” value [3] is given as “filamentous structures”. For the same molecule, the “Localization after stimulation (To)” value [4] was “cytoskeletal elements”, the “Localization after stimulation (To)” value [5] was “perinucleus” and the “Localization after stimulation (To)” value [6] was “no change”. For the same molecule, the “Localization after stimulation (To)” value [7] was “no change” and the “Localization of C1-GFP fusion protein in response to PMA” value [8] was “membrane bound”.
